By DC50 is commonly meant the concentration at which degradation of the target reaches its halfway point. What is called IC50 is the concentration that gives 50% inhibition. A low value points to greater potency in that assay.

One assay has as its target T1, KRAS (G12D) (Homo sapiens, UniProt P01116, G12D).
T1 construct: in-cell western with KRAS G12D antibody after 24 h
The experiment in a line: KRAS (G12D) cellular degradation assay in AsPC-1 cells. In kind it is cell-based. As to conditions: 24 hours, antibody fluorescence (Odyssey CLX), DC50 half-maximal degradation concentration. The procedure, abridged: (§1)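 Proliferation IC50 comes from CellTiter Glo luminescence after 6 days' exposure of AsPC-1 (3,500 cells/well) to 1:3 dilutions from […] to 1.5 nM. KRAS G12D DC50 derives from in-cell immunofluorescence normalised to β-actin after 24 h treatment of near-confluent AsPC-1 cells over the same range.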

For a further assay, the system named is AsPC-1 cells. Put plainly: AsPC-1 cell proliferation assay (CellTiter Glo). To be noted: 6 days. In kind it is cell-based. The procedure, abridged:
as §1
In general terms: In ATP-based viability assays light output follows the ATP content of the culture.

T1 sequence (P01116 1-188 isoform P01116-2 G12D): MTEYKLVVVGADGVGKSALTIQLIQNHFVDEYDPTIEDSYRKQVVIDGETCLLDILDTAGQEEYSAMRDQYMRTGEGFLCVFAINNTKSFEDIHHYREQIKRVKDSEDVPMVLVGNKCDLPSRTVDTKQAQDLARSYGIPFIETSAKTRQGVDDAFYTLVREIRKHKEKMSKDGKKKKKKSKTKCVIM

Take `CCn1cc2c(C#C[C@H](CO)NC(=O)[C@@H]3C[C@@H](O)CN3C(=O)[C@H](C(C)C)n3cc(-c4ccc(COc5c(-c6c(C)c(F)cc7[nH]ncc67)c(C6CC6)cc6c(N7C[C@@H]8C[C@H]7CN8)nc(OC[C@H](C)OC)nc56)cc4)nn3)cccc2n1` [Example 162, (2S,4R)-1-((2S)-2-(4-(4-(((4-((1S,4S)-2,5-diazabicyclo[2.2.1]heptan-2-yl)-6-cyclopropyl-7-(6-fluoro-5-methyl-1H-indazol-4-yl)-2-((S)-2-methoxypropoxy)quinazolin-8-yl)oxy)methyl)phenyl)-1H-1,2,3-triazol-1-yl)-3-methylbutanoyl)-N—((R)-4-(2-ethyl-2H-indazol-4-yl)-1-hydroxybut-3-yn-2-yl)-4-hydroxypyrrolidine-2-carboxamide]: at KRAS (G12D), the DC50 was less than 10 nM. The same molecule displayed a 50% inhibitory concentration (IC50) in the assay with AsPC-1 cells (Homo sapiens, ASPC1, 144 h) of less than 10 nM.
Molecule `CCn1nccc1-c1ccc([C@@H](NC(=O)[C@@H]2C[C@@H](O)CN2C(=O)[C@H](C(C)C)n2cc(-c3ccc(COc4c(-c5c(C)c(F)cc6[nH]ncc56)c(C5CC5)cc5c(N(C)[C@H]6CCNC6)nc(OC[C@H](C)OC)nc45)cc3)nn2)[C@H](C)O)c2c1CC2` [Example 164, (2S,4R)-1-((2S)-2-(4-(4-(((6-cyclopropyl-7-(6-fluoro-5-methyl-1H-indazol-4-yl)-2-((S)-2-methoxypropoxy)-4-(methyl((S)-pyrrolidin-3-yl)amino)quinazolin-8-yl)oxy)methyl)phenyl)-1H-1,2,3-triazol-1-yl)-3-methylbutanoyl)-N-((1R,2S)-1-(5-(1-ethyl-1H-pyrazol-5-yl)bicyclo[4.2.0]octa-1(6),2,4-trien-2-yl)-2-hydroxypropyl)-4-hydroxypyrrolidine-2-carboxamide] came in with a DC50 at KRAS (G12D) of less than 10 nM. This molecule also showed an IC50 with AsPC-1 cells of less than 10 nM.
In turn, `CCn1nccc1-c1ccc([C@H](CO)NC(=O)[C@@H]2C[C@@H](O)CN2C(=O)[C@H](C(C)C)n2cc(-c3ccc(COc4c(-c5c(C)c(F)cc6[nH]ncc56)c(C5CC5)cc5c(N(C)[C@H]6CCNC6)nc(O[C@H]6C[C@H](OC)C6)nc45)cc3)nn2)cc1` [Example 165, (2S,4R)-1-((2S)-2-(4-(4-(((6-cyclopropyl-7-(6-fluoro-5-methyl-1H-indazol-4-yl)-2-((1r,3S)-3-methoxycyclobutoxy)-4-(methyl((S)-pyrrolidin-3-yl)amino)quinazolin-8-yl)oxy)methyl)phenyl)-1H-1,2,3-triazol-1-yl)-3-methylbutanoyl)-N—((R)-1-(4-(1-ethyl-1H-pyrazol-5-yl)phenyl)-2-hydroxyethyl)-4-hydroxypyrrolidine-2-carboxamide] showed a DC50 on KRAS (G12D) of less than 10 nM. This molecule also yielded an IC50 in the assay with AsPC-1 cells (Homo sapiens, ASPC1, 144 h) of less than 10 nM.
`CO[C@H]1C[C@H](Oc2nc(N(C)[C@H]3CCNC3)c3cc(C4CC4)c(-c4c(C)c(F)cc5[nH]ncc45)c(OCc4ccc(-c5cn([C@H](C(=O)N6C[C@H](O)C[C@H]6C(=O)N[C@@H](CO)c6ccc(-c7scnc7C)cc6)C(C)C)nn5)cc4)c3n2)C1` [Example 166, (2S,4R)-1-((2S)-2-(4-(4-(((6-cyclopropyl-7-(6-fluoro-5-methyl-1H-indazol-4-yl)-2-((1r,3S)-3-methoxycyclobutoxy)-4-(methyl((S)-pyrrolidin-3-yl)amino)quinazolin-8-yl)oxy)methyl)phenyl)-1H-1,2,3-triazol-1-yl)-3-methylbutanoyl)-4-hydroxy-N—((R)-2-hydroxy-1-(4-(4-methylthiazol-5-yl)phenyl)ethyl)pyrrolidine-2-carboxamide] had a DC50 on KRAS (G12D) of less than 10 nM. The molecule also showed an IC50 in the assay with AsPC-1 cells (Homo sapiens, ASPC1, 144 h) of less than 10 nM.
`CO[C@@H](C)COc1nc(N(C)[C@H]2CCNC2)c2cc(C3CC3)c(-c3c(C)c(F)cc4[nH]ncc34)c(OCc3ccc(-c4cn([C@H](C(=O)N5C[C@H](O)C[C@H]5C(=O)N[C@H](c5ccc(-c6scnc6C)cc5)[C@H](C)O)C(C)C)nn4)cc3)c2n1` [Example 167, (2S,4R)-1-((2S)-2-(4-(4-(((6-cyclopropyl-7-(6-fluoro-5-methyl-1H-indazol-4-yl)-2-((S)-2-methoxypropoxy)-4-(methyl((S)-pyrrolidin-3-yl)amino)quinazolin-8-yl)oxy)methyl)phenyl)-1H-1,2,3-triazol-1-yl)-3-methylbutanoyl)-4-hydroxy-N-((1R,2S)-2-hydroxy-1-(4-(4-methylthiazol-5-yl)phenyl)propyl)pyrrolidine-2-carboxamide] came in with a DC50 at KRAS (G12D) of less than 10 nM. The molecule further displayed an IC50 in the assay with AsPC-1 cells of less than 10 nM.
In turn, `CCn1nccc1-c1ccc([C@H](CO)NC(=O)[C@@H]2C[C@@H](O)CN2C(=O)[C@H](C(C)C)n2cc(-c3ccc(COc4c(-c5c(C)c(F)cc6[nH]ncc56)c(C5CC5)cc5c(N(C)[C@H]6CCNC6)nc(OC[C@H](C)OC)nc45)cc3)nn2)c2c1CC2` [Example 169, (2S,4R)-1-((2S)-2-(4-(4-(((6-cyclopropyl-7-(6-fluoro-5-methyl-1H-indazol-4-yl)-2-((S)-2-methoxypropoxy)-4-(methyl((S)-pyrrolidin-3-yl)amino)quinazolin-8-yl)oxy)methyl)phenyl)-1H-1,2,3-triazol-1-yl)-3-methylbutanoyl)-N—((R)-1-(5-(1-ethyl-1H-pyrazol-5-yl)bicyclo[4.2.0]octa-1(6),2,4-trien-2-yl)-2-hydroxyethyl)-4-hydroxypyrrolidine-2-carboxamide] came in with a DC50 on KRAS (G12D) of less than 10 nM. Moreover, the IC50 in the assay on AsPC-1 cells (Homo sapiens, ASPC1, 144 h) is less than 10 nM.
`CCn1nccc1-c1ccc([C@@H](NC(=O)[C@@H]2C[C@@H](O)CN2C(=O)[C@H](C(C)C)n2cc(-c3ccc(COc4c(-c5c(C)c(F)cc6[nH]ncc56)c(C5CC5)cc5c(N(C)[C@H]6CCNC6)nc(O[C@H]6C[C@H](OC)C6)nc45)cc3)nn2)[C@H](C)O)cc1` [Example 170, (2S,4R)-1-((2S)-2-(4-(4-(((6-cyclopropyl-7-(6-fluoro-5-methyl-1H-indazol-4-yl)-2-((1r,3S)-3-methoxycyclobutoxy)-4-(methyl((S)-pyrrolidin-3-yl)amino)quinazolin-8-yl)oxy)methyl)phenyl)-1H-1,2,3-triazol-1-yl)-3-methylbutanoyl)-N-((1R,2S)-1-(4-(1-ethyl-1H-pyrazol-5-yl)phenyl)-2-hydroxypropyl)-4-hydroxypyrrolidine-2-carboxamide] gave a DC50 at KRAS (G12D) of less than 10 nM. In the assay on AsPC-1 cells (Homo sapiens, ASPC1, 144 h), this molecule showed an IC50 of less than 10 nM.
Take `CO[C@H]1C[C@H](Oc2nc(N(C)[C@H]3CCNC3)c3cc(C4CC4)c(-c4c(C)c(F)cc5[nH]ncc45)c(OCc4ccc(-c5cn([C@H](C(=O)N6C[C@H](O)C[C@H]6C(=O)N[C@H](c6ccc(-c7scnc7C)cc6)[C@H](C)O)C(C)C)nn5)cc4)c3n2)C1` [Example 171, (2S,4R)-1-((2S)-2-(4-(4-(((6-cyclopropyl-7-(6-fluoro-5-methyl-1H-indazol-4-yl)-2-((1r,3S)-3-methoxycyclobutoxy)-4-(methyl((S)-pyrrolidin-3-yl)amino)quinazolin-8-yl)oxy)methyl)phenyl)-1H-1,2,3-triazol-1-yl)-3-methylbutanoyl)-4-hydroxy-N-((1R,2S)-2-hydroxy-1-(4-(4-methylthiazol-5-yl)phenyl)propyl)pyrrolidine-2-carboxamide]: the DC50 on KRAS (G12D) was less than 10 nM. The molecule further displayed an IC50 in the assay with AsPC-1 cells (Homo sapiens, ASPC1, 144 h) of less than 10 nM.
`CCn1nccc1-c1ccc([C@@H](NC(=O)[C@@H]2C[C@@H](O)CN2C(=O)[C@H](C(C)C)n2cc(-c3ccc(COc4c(-c5c(C)c(F)cc6[nH]ncc56)c(C5CC5)cc5c(N(C)[C@H]6CCNC6)nc(O[C@H]6C[C@H](OC)C6)nc45)cc3)nn2)[C@H](C)O)c2c1CC2` [Example 173, (2S,4R)-1-((2S)-2-(4-(4-(((6-cyclopropyl-7-(6-fluoro-5-methyl-1H-indazol-4-yl)-2-((1r,3S)-3-methoxycyclobutoxy)-4-(methyl((S)-pyrrolidin-3-yl)amino)quinazolin-8-yl)oxy)methyl)phenyl)-1H-1,2,3-triazol-1-yl)-3-methylbutanoyl)-N-((1R,2S)-1-(5-(1-ethyl-1H-pyrazol-5-yl)bicyclo[4.2.0]octa-1(6),2,4-trien-2-yl)-2-hydroxypropyl)-4-hydroxypyrrolidine-2-carboxamide] yielded a 50% degradation concentration (DC50) on KRAS (G12D) of less than 10 nM. For the same molecule, the IC50 in the assay with AsPC-1 cells (Homo sapiens, ASPC1, 144 h) was less than 10 nM.
As to `CNc1nc2ccc(C#C[C@H](CO)NC(=O)[C@@H]3C[C@@H](O)CN3C(=O)[C@H](C(C)C)n3cc(-c4ccc(COc5c(-c6c(C)c(F)cc7[nH]ncc67)c(C6CC6)cc6c(N7C[C@@H]8C[C@H]7CN8)nc(OC[C@H](C)OC)nc56)cc4)nn3)cc2s1` [Example 176, (2S,4R)-1-((2S)-2-(4-(4-(((4-((1S,4S)-2,5-diazabicyclo[2.2.1]heptan-2-yl)-6-cyclopropyl-7-(6-fluoro-5-methyl-1H-indazol-4-yl)-2-((S)-2-methoxypropoxy)quinazolin-8-yl)oxy)methyl)phenyl)-1H-1,2,3-triazol-1-yl)-3-methylbutanoyl)-4-hydroxy-N—((R)-1-hydroxy-4-(2-(methylamino)benzo[d]thiazol-6-yl)but-3-yn-2-yl)pyrrolidine-2-carboxamide], at KRAS (G12D), the DC50 was less than 10 nM. This molecule showed an IC50 with AsPC-1 cells (Homo sapiens, ASPC1, 144 h) of less than 10 nM.
`CCn1nccc1-c1ccc([C@H](CO)NC(=O)[C@@H]2C[C@@H](O)CN2C(=O)[C@H](C(C)C)n2cc(-c3ccc(COc4c(-c5c(C)c(F)cc6[nH]ncc56)c(C5CC5)cc5c(N6CCCCCC6)nc(OC[C@H](C)OC)nc45)cc3)nn2)cc1` [Example 177, (2S,4R)-1-((2S)-2-(4-(4-(((4-(azepan-1-yl)-6-cyclopropyl-7-(6-fluoro-5-methyl-1H-indazol-4-yl)-2-((S)-2-methoxypropoxy)quinazolin-8-yl)oxy)methyl)phenyl)-1H-1,2,3-triazol-1-yl)-3-methylbutanoyl)-N—((R)-1-(4-(1-ethyl-1H-pyrazol-5-yl)phenyl)-2-hydroxyethyl)-4-hydroxypyrrolidine-2-carboxamide] registered a 50% degradation concentration (DC50) on KRAS (G12D) of 10 to 100 nM. In the assay with AsPC-1 cells (Homo sapiens, ASPC1, 144 h), this molecule showed an IC50 of 10 to 100 nM.

Values taken from patent US20260295053A1, “COMPOUNDS FOR DEGRADATION AND INHIBITION OF KRAS (G12D) PROTEIN” (Shenzhen Ionova Life Science Co., Ltd., priority 2023, published 2026).
